Organism: Rattus norvegicus
Assay: Open TG-GATES - Regimen: Daily Repeat
Type: toxicity, organism-based, Sprague-Dawley
Design: regimen Daily Repeat, gender Male, age 6 weeks
Settings: in vivo, po, 30 mg/kg, route gavage, dose level Low; for APTT / Bas / Eos / Fbg / Hb / Ht / Lym / MCH / MCHC / MCV / Mono / Neu / PT / Plat / RBC / Ret / WBC: tissue Blood; for KIDNEY_L / KIDNEY_R / KIDNEY_TOTAL: tissue Kidney; for LIVER: tissue Liver; for A/G / ALP / ALT / AST / BUN / CRE / Ca / Cl / DBIL / GLC / IP / K / LDH / Na / PL / RALB / TBIL / TC / TG / TP / gamma-GTP: tissue Plasma

CCCNC(=O)NS(=O)(=O)c1ccc(Cl)cc1 [CHLORPROPAMIDE]
TERMINAL_BW (72 h, time 3 day): 215.3 g | APTT (72 h, time 3 day): 21.2 s | Bas (72 h, time 3 day): 0% | Eos (72 h, time 3 day): 1.2% | Fbg (72 h, time 3 day): 265 mg/dL | Hb (72 h, time 3 day): 13.2 g/dL | Ht (72 h, time 3 day): 39.6% | Lym (72 h, time 3 day): 80.6% | MCH (72 h, time 3 day): 21.1 pg | MCHC (72 h, time 3 day): 33.2% | MCV (72 h, time 3 day): 63.3 fL | Mono (72 h, time 3 day): 2.4% | Neu (72 h, time 3 day): 15% | PT (72 h, time 3 day): 15.8 s | Plat (72 h, time 3 day): 116.1 x10_4/uL | RBC (72 h, time 3 day): 626 x10_4/ul | Ret (72 h, time 3 day): 7% | WBC (72 h, time 3 day): 83.4 x10_2/uL | KIDNEY_L (72 h, time 3 day): 0.9 g | KIDNEY_R (72 h, time 3 day): 0.9 g | KIDNEY_TOTAL (72 h, time 3 day): 1.8 g | LIVER (72 h, time 3 day): 10.1 g | A/G (72 h, time 3 day): 0.9 | ALP (72 h, time 3 day): 1696 IU/L | ALT (72 h, time 3 day): 49.6 IU/L | AST (72 h, time 3 day): 73.2 IU/L | BUN (72 h, time 3 day): 17.8 mg/dL | CRE (72 h, time 3 day): 0.2 mg/dL | Ca (72 h, time 3 day): 10.6 mg/dL | Cl (72 h, time 3 day): 106 meq/L | DBIL (72 h, time 3 day): 0.01 mg/dL | GLC (72 h, time 3 day): 174 mg/dL | IP (72 h, time 3 day): 7.5 mg/dL | K (72 h, time 3 day): 4.1 meq/L | LDH (72 h, time 3 day): 80.8 IU/L | Na (72 h, time 3 day): 143.2 meq/L | PL (72 h, time 3 day): 151 mg/dL | RALB (72 h, time 3 day): 2.6 g/dL | TBIL (72 h, time 3 day): 0.024 mg/dL | TC (72 h, time 3 day): 78.8 mg/dL | TG (72 h, time 3 day): 108 mg/dL | TP (72 h, time 3 day): 5.7 g/dL | gamma-GTP (72 h, time 3 day): 1 IU/L | TERMINAL_BW ([…], time 7 day): 245.8 g | TERMINAL_BW ([…], time 14 day): 303 g | TERMINAL_BW ([…], time 28 day): 389 g | APTT ([…], time 7 day): 19.1 s | Bas ([…], time 7 day): 0% | Eos ([…], time 7 day): 1% | Fbg ([…], time 7 day): 284.8 mg/dL | Hb ([…], time 7 day): 13.7 g/dL | Ht ([…], time 7 day): 41.3% | Lym ([…], time 7 day): 79.6% | MCH ([…], time 7 day): 21.3 pg | MCHC ([…], time 7 day): 33.2% | MCV ([…], time 7 day): 64.2 fL | Mono ([…], time 7 day): 1.8% | Neu ([…], time 7 day): 16.2% | PT ([…], time 7 day): 15.5 s | Plat ([…], time 7 day): 127.7 x10_4/uL | RBC ([…], time 7 day): 643 x10_4/ul | Ret ([…], time 7 day): 5.9% | WBC ([…], time 7 day): 95.2 x10_2/uL | APTT ([…], time 14 day): 16.7 s | Bas ([…], time 14 day): 0% | Eos ([…], time 14 day): 0.8% | Fbg ([…], time 14 day): 263 mg/dL | Hb ([…], time 14 day): 14.3 g/dL | Ht ([…], time 14 day): 43.2% | Lym ([…], time 14 day): 79.6% | MCH ([…], time 14 day): 20.8 pg | MCHC ([…], time 14 day): 33.2% | MCV ([…], time 14 day): 62.7 fL | Mono ([…], time 14 day): 2.6% | Neu ([…], time 14 day): 15.6% | PT ([…], time 14 day): 16.1 s | Plat ([…], time 14 day): 107.2 x10_4/uL | RBC ([…], time 14 day): 688.6 x10_4/ul | Ret ([…], time 14 day): 4.6% | WBC ([…], time 14 day): 100.6 x10_2/uL | APTT ([…], time 28 day): 18.8 s | Bas ([…], time 28 day): 0% | Eos ([…], time 28 day): 1% | Fbg ([…], time 28 day): 296.4 mg/dL | Hb ([…], time 28 day): 14.9 g/dL | Ht ([…], time 28 day): 45.1% | Lym ([…], time 28 day): 78.8% | MCH ([…], time 28 day): 19.4 pg | MCHC ([…], time 28 day): 33% | MCV ([…], time 28 day): 58.9 fL | Mono ([…], time 28 day): 2.8% | Neu ([…], time 28 day): 16.2% | PT ([…], time 28 day): 16 s | Plat ([…], time 28 day): 106.6 x10_4/uL | RBC ([…], time 28 day): 766.6 x10_4/ul | Ret ([…], time 28 day): 2.5% | WBC ([…], time 28 day): 98 x10_2/uL | KIDNEY_L ([…], time 7 day): 1 g | KIDNEY_R ([…], time 7 day): 1 g | KIDNEY_TOTAL ([…], time 7 day): 2 g | KIDNEY_L ([…], time 14 day): 1.2 g | KIDNEY_R ([…], time 14 day): 1.2 g | KIDNEY_TOTAL ([…], time 14 day): 2.4 g | KIDNEY_L ([…], time 28 day): 1.4 g | KIDNEY_R ([…], time 28 day): 1.4 g | KIDNEY_TOTAL ([…], time 28 day): 2.8 g | LIVER ([…], time 7 day): 11.3 g | LIVER ([…], time 14 day): 13.3 g | LIVER ([…], time 28 day): 16.1 g | A/G ([…], time 7 day): 0.8 | ALP ([…], time 7 day): 1568.6 IU/L | ALT ([…], time 7 day): 42 IU/L | AST ([…], time 7 day): 66.8 IU/L | BUN ([…], time 7 day): 16.2 mg/dL | CRE ([…], time 7 day): 0.2 mg/dL | Ca ([…], time 7 day): 10.9 mg/dL | Cl ([…], time 7 day): 105.6 meq/L | DBIL ([…], time 7 day): 0.018 mg/dL | GLC ([…], time 7 day): 182.8 mg/dL | IP ([…], time 7 day): 7.4 mg/dL | K ([…], time 7 day): 3.9 meq/L | LDH ([…], time 7 day): 93.8 IU/L | Na ([…], time 7 day): 143.4 meq/L | PL ([…], time 7 day): 157.6 mg/dL | RALB ([…], time 7 day): 2.7 g/dL | TBIL ([…], time 7 day): 0.032 mg/dL | TC ([…], time 7 day): 76.4 mg/dL | TG ([…], time 7 day): 136.6 mg/dL | TP ([…], time 7 day): 5.8 g/dL | gamma-GTP ([…], time 7 day): 1 IU/L | A/G ([…], time 14 day): 0.8 | ALP ([…], time 14 day): 1602.6 IU/L | ALT ([…], time 14 day): 41.8 IU/L | AST ([…], time 14 day): 66.6 IU/L | BUN ([…], time 14 day): 18.6 mg/dL | CRE ([…], time 14 day): 0.2 mg/dL | Ca ([…], time 14 day): 10.6 mg/dL | Cl ([…], time 14 day): 103.6 meq/L | DBIL ([…], time 14 day): 0.012 mg/dL | GLC ([…], time 14 day): 204.8 mg/dL | IP ([…], time 14 day): 7.7 mg/dL | K ([…], time 14 day): 4 meq/L | LDH ([…], time 14 day): 123.6 IU/L | Na ([…], time 14 day): 142.6 meq/L | PL ([…], time 14 day): 155 mg/dL | RALB ([…], time 14 day): 2.6 g/dL | TBIL ([…], time 14 day): 0.028 mg/dL | TC ([…], time 14 day): 74.4 mg/dL | TG ([…], time 14 day): 143.8 mg/dL | TP ([…], time 14 day): 5.8 g/dL | gamma-GTP ([…], time 14 day): 0.8 IU/L | A/G ([…], time 28 day): 0.8 | ALP ([…], time 28 day): 1184 IU/L | ALT ([…], time 28 day): 39 IU/L | AST ([…], time 28 day): 64.8 IU/L | BUN ([…], time 28 day): 18.2 mg/dL | CRE ([…], time 28 day): 0.2 mg/dL | Ca ([…], time 28 day): 10.8 mg/dL | Cl ([…], time 28 day): 104.8 meq/L | DBIL ([…], time 28 day): 0.01 mg/dL | GLC ([…], time 28 day): 198.4 mg/dL | IP ([…], time 28 day): 6.7 mg/dL | K ([…], time 28 day): 3.6 meq/L | LDH ([…], time 28 day): 99.8 IU/L | Na ([…], time 28 day): 144.8 meq/L | PL ([…], time 28 day): 163.8 mg/dL | RALB ([…], time 28 day): 2.8 g/dL | TBIL ([…], time 28 day): 0.018 mg/dL | TC ([…], time 28 day): 77.8 mg/dL | TG ([…], time 28 day): 165.6 mg/dL | TP ([…], time 28 day): 6.2 g/dL | gamma-GTP ([…], time 28 day): 1.6 IU/L

— ChEMBL document CHEMBL3885861, “Open TG-GATES”
